Data published in patent US12570684B2 (UNIVERSITY OF TENNESSEE RESEARCH FOUNDATION, priority 2020, dated 2026).
“And” between values parts separate entries of the source, which are not always exact repeats. Equal entries are not always repeated. Where two headings read alike, the source gives them in different places.

Legend:
[1] = tested on: AsPC-1; assay: MTT cytotoxicity assay; format: cell-based, human
Protocol: (§1) Cell lines. The human primary PDAC cell lines PANC-1 (ATCC CRL 1469); Capan-2 (ATCC HTB-80) and metastatic PDAC cell lines Capan-1 (ATCC HTB-79), AsPC-1 (ATCC CRL-1682), L1210 (ATCC CCL-219), KB (ATCC CCL-17), HeLa, SiHa (ATCC HTB-35), HCT-116 (ATCC CCL-247), DLD-1 (ATCC CCL221), hTERT-HPNE (ATCC CRL-4023), Vero (ATCC CCL-81) were purchased from the ATCC. The cell lines were cultured and maintained in the media as recommended by the supplier. The cell lines were regularly tested for mycoplasma contamination and authenticated. In addition to ATCC cell lines, Dr. Glazer's lab generated patient-derived PDAC cell line, PD002. PD002 Cells were maintained and cultured in DMEM medium supplemented with 20% FBS and 100 IU/mL penicillin and incubated at 37° C. with 5% CO2.
(§2) MTT cytotoxicity assay. To study the effect of treatment with DPAGT1 inhibitors on the growth and proliferation of cells, a fixed number of cells (5×10^4 cells/well, 196 μL) were plated in a 96 well plate. Into each well 5 μL of drug concentration was added. After 72 h of incubation with drugs at 37° C., 5% CO2, 10 μL of MTT solution (5 mg/mL in PBS) was added and incubated another 3 h at 37° C., 5% CO2. The medium was removed, and DMSO (200 μL/well) was added. Viability was assessed on the basis of cellular conversion of MTT into a purple formazan product. The absorbance of the colored formazan product was measured at 570 nm by BioTek Synergy HT Spectrophotometer.

[2] = tested on: Capan-2; assay: MTT cytotoxicity assay; format: cell-based, human
Protocol: as §1, §2

[3] = tested on: PANC-1; assay: MTT cytotoxicity assay; format: cell-based, human
Protocol: as §1, §2

[4] = biological target: T1, AglH (M. jannaschii) (Methanocaldococcus jannaschii, UniProt Q58513); assay: AglH assay
T1 sequence (Q58513 1-301): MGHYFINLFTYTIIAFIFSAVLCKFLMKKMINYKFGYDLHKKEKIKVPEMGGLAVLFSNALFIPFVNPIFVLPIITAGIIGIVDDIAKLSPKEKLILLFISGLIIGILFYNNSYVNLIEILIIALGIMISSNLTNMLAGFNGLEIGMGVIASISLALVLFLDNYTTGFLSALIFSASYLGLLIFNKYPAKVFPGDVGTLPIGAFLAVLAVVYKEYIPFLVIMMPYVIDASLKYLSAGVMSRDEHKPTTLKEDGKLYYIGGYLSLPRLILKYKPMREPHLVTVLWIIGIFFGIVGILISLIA

[5] = tested on: Myocobacterium tuberculosis H37Rv, Mycobacterium avium 2285, Mycobacterium smegmatis (ATCC607); assay: Antimycobacterial activity (MIC); format: cell-based, Mycobacterium spp.; conditions: at 50 μg/mL
[6] = biological target: WecA (E. coli) (Escherichia coli, UniProt P0AC78); assay: WecA assay
Protocol: Preparation of membrane fraction P-60 containing WecA. E. coli B21 wecA strain were harvested by centrifugation (4,700 rpm) at 4° C. followed by washing with 0.9% saline solution (thrice). The washed cell pellets were washed with homogenization buffer (containing 50 mM K2HPO4, 5 mM MgCl2, 5 mM 1,4-dithio-DL-threitol, and 10% glycerol, pH=7.2) (thrice), and approximately 5 g of pellet (wet weight) was collected. The washed cell pellets were suspended in homogenization buffer and disrupted by probe sonication on ice (5 s on and 2 s off for 1 min, then cool down for 1.5 min., 5 cycles, cool down for 15 min, and then, 5 s on and 2 s off for 1 min., cool down for 1.5 min, 5 cycles). The resulting suspension was centrifuged at 4,700×g for 15 min. at 4° C. to remove unbroken cells. The lysate was centrifuged at 25,000×g for 20 min. at 4° C. The supernatant was subjected to ultracentrifugation at 60,000×g for 1 h at 4° C. The supernatant was discarded, and the membrane fraction containing WecA enzyme (P-60) was suspended in the Tris-HCl buffer (pH=7.5). Total protein concentrations were approximately 8 to 10 mg/mL. Aliquots were stored in Eppendorf tubes at −80° C.

[7] = biological target: T2, DPAGT1 (Human) (Homo sapiens, UniProt Q9H3H5); assay: DPAGT1 assay; format: biochemical
T2 construct: made in house; host or cells: Expi293 cells (suspension)
T2 sequence (Q9H3H5 1-408): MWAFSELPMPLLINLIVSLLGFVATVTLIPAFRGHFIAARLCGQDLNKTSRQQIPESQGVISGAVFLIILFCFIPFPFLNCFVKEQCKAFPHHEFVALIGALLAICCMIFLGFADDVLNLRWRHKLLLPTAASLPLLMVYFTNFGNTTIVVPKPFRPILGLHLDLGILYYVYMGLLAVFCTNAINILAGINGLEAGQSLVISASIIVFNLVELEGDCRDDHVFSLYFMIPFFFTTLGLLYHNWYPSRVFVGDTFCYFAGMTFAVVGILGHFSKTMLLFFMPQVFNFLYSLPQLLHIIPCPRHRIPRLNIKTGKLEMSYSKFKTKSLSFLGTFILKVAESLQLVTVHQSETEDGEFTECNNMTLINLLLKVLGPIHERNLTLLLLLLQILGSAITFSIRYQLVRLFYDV
Protocol: DPAGT1 expression and purification. DPAGT1 was expressed in suspended Expi293 cells for 36 h. The cells were lysed by drawing through a 26 g needle (10 times) and membrane protein was extracted using buffer containing 1% decyl f3-D-maltopyranoside detergent. DPAGT1 was purified using HA-agarose resin and a superdex 200 size exclusion column.

[8] = biological target: MraY (Hydrogenivirga sp.) (Hydrogenivirga sp. 128-5-R1-1, UniProt Z9Y2G8N0L0); assay: MraY assay; format: biochemical
Protocol: Expression and purification of HyMraY. The gene mraY of Hydrogenivirga spp. 128-5-R1-1 was cloned with a N-terminal His6 tag into a pET22b vector. […] The proteins were purified using a nickel, cation exchange, and size exclusion chromatography.
MraY assay. MraY assay substrates, Park's nucleotide-N^ε-C6-dansylthiourea, neryl phosphate, were chemically synthesized according to the reported procedures.^7 Park's nucleotide-N^ε-C6-dansylthiourea (2 mM stock solution, 1.88 jiL), MgCl2 (0.5 M, 5 jiL), KCl (2 M, 5 jiL), Triton X-100 (0.5%, 5.63 jiL), Tris buffer (pH 8.0, 50 mM), neryl phosphate (0.1 M, 2.25 jiL), and inhibitor molecule (0-50 .ig/mL in Tris buffer) were placed in a 1.5 mL Eppendorf tube. […] (26° C.) and quenched with CHCl3 (100 jiL). […] The aqueous phase was assayed via reverse-phase HPLC.

[9] = tested on: KB; assay: MTT cytotoxicity assay; format: cell-based; conditions: 72 h
Protocol: as §1, §2

[10] = tested on: Vero; assay: MTT cytotoxicity assay; format: cell-based; conditions: for IC50: MTT, 72 h
Protocol: as §1, §2

[11] = tested on: HPNE; assay: MTT cytotoxicity assay; format: cell-based; conditions: for IC50: MTT, 72 h
Protocol: as §1, §2

[12] = tested on: HCT-116; assay: MTT cytotoxicity assay; format: cell-based
Protocol: as §1, §2

[13] = tested on: DLD-1; assay: MTT cytotoxicity assay; format: cell-based
Protocol: as §1, §2

[14] = tested on: PD002; assay: MTT cytotoxicity assay; format: cell-based; conditions: MTT, 72 h
Protocol: as §1, §2

[15] = tested on: SiHa; assay: MTT cytotoxicity assay; format: cell-based; conditions: 72 h
Protocol: as §1, §2

[16] = tested on: L1210; assay: MTT cytotoxicity assay; format: cell-based; conditions: for IC50: MTT, 72 h
Protocol: as §1, §2

[17] = tested on: cell lines in Table 2; assay: MTT assays, summary over the cell lines in Table 2; format: cell-based
Protocol: as §1, §2

[18] = tested on: MraY; conditions: background; cited from earlier work
[19] = tested on: WecA; conditions: background; cited from earlier work
[20] = biological target: MraY/MurX (Mycobacterium tuberculosis, UniProt P9WMW7); conditions: background; cited from earlier work
[21] = tested on: DPAGT1; assay: Immunofluorescent staining of DPAGT1 expression; format: cell-based
[22] = tested on: PD002; assay: Scratch (wound healing) assay; format: cell-based; conditions: 0.2 μM, 24 h; untreated PD002 63%
Protocol: Scratch Assay. A confluent monolayer was formed in 24-well plates. The monolayer was scratched by a sterile 200 μL pipette tip and washed with PBS to remove cell debris. Complete medium with CPPB (5) (0, 0.05, 0.1, 0.2 μM) were added and scratched areas were photographed with microscope. The scratched cells were incubated at 37° C., 5% CO2. After 24 h, medium was removed and cells were stained with a 1:1 mixture of crystal violet and PBS for 5 min., washed with PBS twice, and photographed with microscope. Wound areas were measured and recovered areas were calculated.

[23] = tested on: DPAGT1; conditions: background; cited from earlier work
[24] = tested on: DPAGT1 gene; assay: RT-qPCR analyses of DPAGT1 expression level; format: cell-based; conditions: PD002
[25] = tested on: mice; conditions: IP; cited from earlier work

MraY (Hydrogenivirga sp.), sequence (Z9Y2G8N0L0 7-365 limits assumed): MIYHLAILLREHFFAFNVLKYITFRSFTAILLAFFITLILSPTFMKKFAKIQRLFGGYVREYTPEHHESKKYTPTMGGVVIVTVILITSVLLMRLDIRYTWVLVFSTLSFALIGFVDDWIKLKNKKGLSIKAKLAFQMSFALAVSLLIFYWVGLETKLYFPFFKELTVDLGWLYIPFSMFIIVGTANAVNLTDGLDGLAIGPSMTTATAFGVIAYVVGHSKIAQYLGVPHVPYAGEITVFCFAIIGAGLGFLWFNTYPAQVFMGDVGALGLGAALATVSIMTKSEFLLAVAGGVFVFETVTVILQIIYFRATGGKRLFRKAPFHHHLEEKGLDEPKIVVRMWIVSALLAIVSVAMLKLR
WecA (E. coli), sequence (P0AC78 whole entry): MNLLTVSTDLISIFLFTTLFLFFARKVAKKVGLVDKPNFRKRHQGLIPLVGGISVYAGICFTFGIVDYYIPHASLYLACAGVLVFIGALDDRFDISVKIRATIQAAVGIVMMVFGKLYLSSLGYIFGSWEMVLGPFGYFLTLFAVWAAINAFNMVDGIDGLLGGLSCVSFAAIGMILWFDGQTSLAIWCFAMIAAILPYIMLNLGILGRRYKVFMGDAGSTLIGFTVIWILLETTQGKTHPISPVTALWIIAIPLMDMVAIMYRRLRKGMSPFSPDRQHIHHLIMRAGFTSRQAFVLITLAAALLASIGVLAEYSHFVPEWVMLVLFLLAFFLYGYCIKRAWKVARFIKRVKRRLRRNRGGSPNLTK
MraY/MurX, sequence (P9WMW7 whole entry): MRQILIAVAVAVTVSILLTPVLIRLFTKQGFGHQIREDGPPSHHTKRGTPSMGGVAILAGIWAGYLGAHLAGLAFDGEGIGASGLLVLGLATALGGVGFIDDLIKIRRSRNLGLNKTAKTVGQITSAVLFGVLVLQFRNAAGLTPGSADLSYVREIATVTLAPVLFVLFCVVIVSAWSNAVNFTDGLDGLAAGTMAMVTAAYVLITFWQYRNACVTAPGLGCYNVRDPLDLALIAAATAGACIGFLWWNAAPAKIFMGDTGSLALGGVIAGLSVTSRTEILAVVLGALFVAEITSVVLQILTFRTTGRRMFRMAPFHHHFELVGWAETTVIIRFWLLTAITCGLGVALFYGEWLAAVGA

Compound	IC50 ([1]; Homo sapiens, ASPC1, 72 h) [µM]	IC50 ([2]; Homo sapiens, Capan-2, 72 h) [µM]	IC50 ([3]; Homo sapiens, PANC-1, 72 h) [µM]	AglH inhibitory activity (in words) [4]	WecA inhibitory activity (in words) [6]	DPAGT1 inhibitory activity (in words) [7]	MraY inhibitory activity (in words) [8]	IC50 ([9]; Homo sapiens, KB) [µM]	IC50 ([10]; Chlorocebus sabaeus, Vero) [µM]	IC50 ([11]; HPNE) [µM]	IC50 ([12]; Homo sapiens, HCT-116, 72 h) [µM]	IC50 ([13]; Homo sapiens, DLD-1, 72 h) [µM]	IC50 ([14]; PD002) [µM]	IC50 ([15]; Homo sapiens, SiHa) [µM]	IC50 [8] [µM]	IC50 ([1]; 72 h) [µM]	IC50 ([2]; 72 h) [µM]	IC50 ([3]; 72 h) [µM]	IC50 [19] [µM]	IC50 ([6]; read-out: IC50 WecA (E. coli)) [µM]	other results
CO[C@@H]1[C@H](O)[C@@H]([C@@H](O[C@H]2OC(C(=O)NCc3ccc(N4CCC(Oc5ccc(OC(F)(F)F)cc5)CC4)cc3)=C[C@H](O)[C@@H]2O)C(N)=O)O[C@H]1n1ccc(=O)[nH]c1=O	30	40	45	very weak	very weak	high nM range DPAGT1 inhibitors	did not display MraY inhibitory activity	35	> 50	> 50	25	35	50	25							growth inhibitory activity against Mycobacterium spp. [5]: did not show growth inhibitory activity; antiproliferative activity against Vero ([10]; at 50 μM, normal kidney cell): did not show antiproliferative activity; antiproliferative activity against HPNE ([11]; at 50 μM, normal pancreatic ductal cell): did not show antiproliferative activity; antiproliferative activity against L1210 ([16]; at 50 μM): did not show antiproliferative activity; IC50 ([17]; KB, SiHa, HCT-116, DLP-1, Capan-2, PANC-1, AsPC-1, PD002, MTT assays, read-out: IC50 range, growth inhibition of solid cancer cell lines): 15 to 40 µM
CO[C@H]1[C@@H](O)[C@H](n2ccc(=O)[nH]c2=O)O[C@@H]1[C@@H](O[C@H]1OC(C(=O)N[C@H]2CCCCNC2=O)=C[C@H](O)[C@@H]1O)C(N)=O [Capuramycin]	> 50	> 50	> 50	does not display inhibitory activity	does not display inhibitory activity	does not display inhibitory activity	selective MraY inhibitor	> 50	> 50	> 50	> 50	> 50	> 50	> 50	0.13						IC50 [4]: > 50 µM; IC50 [6]: > 50 µM; IC50 [18]: 0.15 µM; IC50 ([16]; Mus musculus, L1210): > 50 µM
CO[C@H]1[C@@H](OC)[C@H](n2ccc(=O)[nH]c2=O)O[C@@H]1[C@@H](O[C@H]1OC(C(=O)N[C@H]2CCCCNC2=O)=C[C@H](O)[C@@H]1O)C(N)=O [O-Methyl capuramycin]															> 50	> 50	> 50	> 50	~0.06	0.06	MraY/MurX inhibitory activity (in words) [20]: does not exhibit MraY/MurX inhibitory activity; IC50 [7]: 4.5 µM; IC50 ([7]; listed as OM-CAP): 3.5 µM; IC50 [9]: > 50 µM; IC50 [10]: > 50 µM; IC50 [11]: > 50 µM; IC50 ([12]; 72 h): > 50 µM; IC50 ([13]; 72 h): > 50 µM; IC50 [14]: > 50 µM; IC50 [15]: > 50 µM; IC50 [16]: > 50 µM
Tunicamycin															2.9	0.45	1.5	1.5	0.15	0.15	IC50 ([4]; read-out: IC50 AglH (M. jannaschii)): 13.2 µM; DPAGT1 protein expression [21]: decreased; wound-healing rate [22]: 35%; IC50 [23]: 2.5 µM; IC50 [20]: 3.38 µM; IC50 [7]: 1.5 µM; IC50 [9]: 2.5 µM; IC50 [10]: 0.78 µM; IC50 [11]: 7.5 µM; IC50 ([12]; 72 h): 0.92 µM; IC50 ([13]; 72 h): 1.25 µM; IC50 [14]: 1.5 µM; IC50 [15]: 0.92 µM; IC50 [16]: 1.7 µM; DPAGT1 gene expression [24]: decreased; IC50 ([17]; all cell lines in Table 2, read-out: IC50 range, growth inhibition of all cell lines in Table 2): 0.78 to 7.5 µM and 0.45 to 7.5 µM; LD100 [25]: 3.5 mg/kg; LDs50 [25]: 2.0 mg/kg
